What was measured:
[1] = target: T1, Mitogen-activated protein kinase 15 (Homo sapiens) (UniProt Q8TD08); details: dose 10.0 µM
T1 sequence (whole entry): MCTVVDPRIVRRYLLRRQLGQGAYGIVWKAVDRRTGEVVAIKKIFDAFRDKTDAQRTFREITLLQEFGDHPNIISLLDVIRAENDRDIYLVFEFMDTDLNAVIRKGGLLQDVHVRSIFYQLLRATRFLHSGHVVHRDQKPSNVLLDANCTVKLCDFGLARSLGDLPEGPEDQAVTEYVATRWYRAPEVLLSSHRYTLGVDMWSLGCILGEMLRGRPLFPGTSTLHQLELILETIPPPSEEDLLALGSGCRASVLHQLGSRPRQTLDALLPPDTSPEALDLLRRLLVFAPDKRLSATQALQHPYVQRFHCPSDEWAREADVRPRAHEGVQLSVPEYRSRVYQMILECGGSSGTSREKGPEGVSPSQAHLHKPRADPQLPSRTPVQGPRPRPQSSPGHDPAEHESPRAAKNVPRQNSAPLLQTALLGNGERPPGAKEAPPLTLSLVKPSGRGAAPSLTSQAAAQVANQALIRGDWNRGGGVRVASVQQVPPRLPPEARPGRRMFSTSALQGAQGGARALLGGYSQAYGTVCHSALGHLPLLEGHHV

[2] = target: T2, Dual specificity protein kinase CLK1 (Homo sapiens, UniProt P49759); type: cell-based, Sf9
[3] = target: T3, Dual specificity tyrosine-phosphorylation-regulated kinase 3 (Homo sapiens, UniProt O43781)
T3 sequence (O43781 whole entry): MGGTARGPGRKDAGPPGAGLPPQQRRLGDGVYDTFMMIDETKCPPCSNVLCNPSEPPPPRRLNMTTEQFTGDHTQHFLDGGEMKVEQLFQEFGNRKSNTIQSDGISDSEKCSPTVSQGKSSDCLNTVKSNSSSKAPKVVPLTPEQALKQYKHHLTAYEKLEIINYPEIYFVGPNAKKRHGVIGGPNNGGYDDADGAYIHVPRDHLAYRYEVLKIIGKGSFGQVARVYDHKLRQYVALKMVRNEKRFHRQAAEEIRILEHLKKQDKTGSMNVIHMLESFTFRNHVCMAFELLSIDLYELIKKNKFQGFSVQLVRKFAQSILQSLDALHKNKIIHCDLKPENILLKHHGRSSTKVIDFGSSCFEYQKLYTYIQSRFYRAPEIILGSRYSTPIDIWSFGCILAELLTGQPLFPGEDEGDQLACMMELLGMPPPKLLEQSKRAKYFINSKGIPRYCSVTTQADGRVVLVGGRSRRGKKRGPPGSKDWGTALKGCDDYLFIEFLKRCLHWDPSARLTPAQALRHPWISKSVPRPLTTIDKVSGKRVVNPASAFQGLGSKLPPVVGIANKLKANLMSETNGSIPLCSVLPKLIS

[4] = target: Dual specificity protein kinase CLK3 (Homo sapiens, UniProt P49761); type: cell-based, Sf9
[5] = target: Serine/threonine-protein kinase pim-3 (Homo sapiens) (UniProt Q86V86); details: dose 10.0 µM
[6] = target: Dual specificity tyrosine-phosphorylation-regulated kinase 2 (Homo sapiens) (UniProt Q92630); details: dose 10.0 µM
[7] = target: Myotonin-protein kinase (Homo sapiens) (UniProt Q09013); details: dose 10.0 µM
[8] = target: Casein kinase I isoform delta (Homo sapiens) (UniProt P48730); details: dose 10.0 µM
[9] = target: Homeodomain-interacting protein kinase 2 (Homo sapiens) (UniProt Q9H2X6); details: dose 10.0 µM
[10] = target: Casein kinase I isoform epsilon (Homo sapiens, UniProt P49674); details: dose 10.0 µM
[11] = target: T4, Glycogen synthase kinase-3 beta (Homo sapiens, UniProt P49841); details: dose 10.0 µM
Target sequence in this assay (P49841 whole entry, looked up): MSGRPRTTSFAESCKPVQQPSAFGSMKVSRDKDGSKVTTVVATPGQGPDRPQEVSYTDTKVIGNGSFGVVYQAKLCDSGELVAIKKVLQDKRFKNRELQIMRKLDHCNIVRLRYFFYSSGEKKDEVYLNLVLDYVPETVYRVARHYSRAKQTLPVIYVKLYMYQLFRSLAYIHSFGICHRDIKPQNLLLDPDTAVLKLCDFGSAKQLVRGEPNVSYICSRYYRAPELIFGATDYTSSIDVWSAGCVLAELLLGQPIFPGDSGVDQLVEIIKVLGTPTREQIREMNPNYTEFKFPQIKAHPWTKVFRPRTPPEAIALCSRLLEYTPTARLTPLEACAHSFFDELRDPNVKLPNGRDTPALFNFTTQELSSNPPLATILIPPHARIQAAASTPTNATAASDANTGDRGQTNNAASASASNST

[12] = target: BMP-2-inducible protein kinase (Homo sapiens) (UniProt Q9NSY1); details: dose 10.0 µM
[13] = target: T4, Glycogen synthase kinase-3 beta; type: cell-based, Sf9
Target sequence in this assay (P49841 whole entry): as the sequence (P49841 whole entry, looked up) above

[14] = target: Casein kinase II subunit alpha (Homo sapiens) (UniProt P68400); details: dose 10.0 µM
[15] = target: Aurora kinase A (Homo sapiens) (UniProt O14965); details: dose 10.0 µM
[16] = target: Dual specificity protein kinase CLK4 (Homo sapiens, UniProt Q9HAZ1)
[17] = target: Calcium/calmodulin-dependent protein kinase kinase 2 (Homo sapiens) (UniProt Q96RR4); details: dose 10.0 µM
[18] = target: Serine/threonine-protein kinase haspin (Homo sapiens) (UniProt Q8TF76); details: dose 10.0 µM
[19] = target: T2, Dual specificity protein kinase CLK1; details: dose 10.0 µM
[20] = target: Dual specificity tyrosine-phosphorylation-regulated kinase 1A (Homo sapiens, UniProt Q13627); details: dose 10.0 µM
[21] = target: T5, Dual specificity tyrosine-phosphorylation-regulated kinase 4 (Homo sapiens, UniProt Q9NR20)
T5 sequence (Q9NR20 whole entry): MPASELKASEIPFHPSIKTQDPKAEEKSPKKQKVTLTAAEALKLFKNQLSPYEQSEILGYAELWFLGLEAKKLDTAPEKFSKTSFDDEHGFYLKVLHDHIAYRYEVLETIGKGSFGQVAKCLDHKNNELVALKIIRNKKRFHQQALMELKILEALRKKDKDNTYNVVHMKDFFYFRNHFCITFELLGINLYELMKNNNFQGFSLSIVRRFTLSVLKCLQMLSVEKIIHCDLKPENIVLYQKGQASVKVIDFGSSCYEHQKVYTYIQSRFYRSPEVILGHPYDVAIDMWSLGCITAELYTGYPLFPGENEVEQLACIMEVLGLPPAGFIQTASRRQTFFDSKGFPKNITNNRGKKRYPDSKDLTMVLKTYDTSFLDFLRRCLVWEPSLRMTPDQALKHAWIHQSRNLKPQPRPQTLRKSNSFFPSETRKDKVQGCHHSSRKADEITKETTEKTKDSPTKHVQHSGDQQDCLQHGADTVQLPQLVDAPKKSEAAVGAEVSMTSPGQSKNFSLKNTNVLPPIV

[22] = target: Dual specificity protein kinase CLK2 (Homo sapiens, UniProt P49760)
[23] = target: AP2-associated protein kinase 1 (Homo sapiens) (UniProt Q2M2I8); details: dose 10.0 µM
Chain of AP2-associated protein kinase 1 (Homo sapiens) (Q2M2I8 whole entry, looked up): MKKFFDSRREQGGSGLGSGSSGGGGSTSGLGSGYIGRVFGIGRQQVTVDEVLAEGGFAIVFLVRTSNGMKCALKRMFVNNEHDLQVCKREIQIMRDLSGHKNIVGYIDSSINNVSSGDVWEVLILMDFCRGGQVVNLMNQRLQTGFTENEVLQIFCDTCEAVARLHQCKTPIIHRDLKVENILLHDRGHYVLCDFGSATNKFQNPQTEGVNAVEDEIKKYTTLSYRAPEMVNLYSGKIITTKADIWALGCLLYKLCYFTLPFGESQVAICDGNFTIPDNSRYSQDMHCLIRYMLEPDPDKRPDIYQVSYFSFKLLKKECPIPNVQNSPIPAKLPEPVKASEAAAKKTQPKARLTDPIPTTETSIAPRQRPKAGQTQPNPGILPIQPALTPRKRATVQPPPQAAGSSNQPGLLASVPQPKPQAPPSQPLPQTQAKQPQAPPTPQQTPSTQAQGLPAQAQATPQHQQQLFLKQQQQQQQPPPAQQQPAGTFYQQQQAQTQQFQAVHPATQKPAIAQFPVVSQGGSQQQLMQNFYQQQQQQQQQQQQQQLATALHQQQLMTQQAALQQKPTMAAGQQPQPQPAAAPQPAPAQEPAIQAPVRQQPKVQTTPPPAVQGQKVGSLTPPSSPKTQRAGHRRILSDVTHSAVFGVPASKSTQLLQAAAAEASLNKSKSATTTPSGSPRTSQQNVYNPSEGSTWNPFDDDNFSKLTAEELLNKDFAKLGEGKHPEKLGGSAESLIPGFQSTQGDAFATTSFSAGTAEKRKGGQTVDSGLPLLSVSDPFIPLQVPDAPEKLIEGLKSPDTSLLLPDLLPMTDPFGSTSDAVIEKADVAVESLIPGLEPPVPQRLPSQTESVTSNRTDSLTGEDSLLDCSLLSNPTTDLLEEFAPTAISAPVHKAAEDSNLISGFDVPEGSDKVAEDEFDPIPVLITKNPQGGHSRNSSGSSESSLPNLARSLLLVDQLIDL

Chain of Dual specificity protein kinase CLK4 (Q9HAZ1 whole entry): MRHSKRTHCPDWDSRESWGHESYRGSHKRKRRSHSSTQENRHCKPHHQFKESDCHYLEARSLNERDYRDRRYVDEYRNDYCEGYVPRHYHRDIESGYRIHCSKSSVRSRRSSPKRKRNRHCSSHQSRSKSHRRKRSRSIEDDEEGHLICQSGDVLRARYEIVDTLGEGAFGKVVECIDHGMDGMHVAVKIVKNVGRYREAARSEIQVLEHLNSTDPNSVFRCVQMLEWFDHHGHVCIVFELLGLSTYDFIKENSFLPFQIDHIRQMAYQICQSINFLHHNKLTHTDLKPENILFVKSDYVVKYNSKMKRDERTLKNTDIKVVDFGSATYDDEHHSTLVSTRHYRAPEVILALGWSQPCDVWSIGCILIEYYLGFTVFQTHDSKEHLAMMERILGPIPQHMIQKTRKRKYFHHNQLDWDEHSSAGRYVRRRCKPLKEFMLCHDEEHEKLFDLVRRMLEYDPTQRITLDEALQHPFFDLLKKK
Chain of Myotonin-protein kinase (Homo sapiens) (Q09013 whole entry, canonical isoform): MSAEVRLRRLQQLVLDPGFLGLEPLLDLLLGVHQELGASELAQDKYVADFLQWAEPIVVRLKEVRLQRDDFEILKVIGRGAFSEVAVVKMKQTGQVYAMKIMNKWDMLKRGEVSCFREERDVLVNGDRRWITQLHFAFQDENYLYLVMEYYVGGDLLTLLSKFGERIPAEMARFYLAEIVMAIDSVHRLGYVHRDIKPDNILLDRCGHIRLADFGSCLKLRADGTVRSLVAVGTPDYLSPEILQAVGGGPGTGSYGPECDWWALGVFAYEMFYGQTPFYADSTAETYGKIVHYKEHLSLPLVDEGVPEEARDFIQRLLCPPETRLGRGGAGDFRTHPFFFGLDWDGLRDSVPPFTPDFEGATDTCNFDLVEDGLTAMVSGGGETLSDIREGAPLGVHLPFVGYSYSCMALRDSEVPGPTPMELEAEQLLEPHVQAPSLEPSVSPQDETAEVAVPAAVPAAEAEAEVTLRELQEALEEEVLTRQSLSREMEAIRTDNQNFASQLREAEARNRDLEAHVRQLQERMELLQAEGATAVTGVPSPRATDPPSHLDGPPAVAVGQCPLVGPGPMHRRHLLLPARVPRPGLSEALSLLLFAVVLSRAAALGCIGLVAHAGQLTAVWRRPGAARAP
Chain of Aurora kinase A (Homo sapiens) (O14965 whole entry): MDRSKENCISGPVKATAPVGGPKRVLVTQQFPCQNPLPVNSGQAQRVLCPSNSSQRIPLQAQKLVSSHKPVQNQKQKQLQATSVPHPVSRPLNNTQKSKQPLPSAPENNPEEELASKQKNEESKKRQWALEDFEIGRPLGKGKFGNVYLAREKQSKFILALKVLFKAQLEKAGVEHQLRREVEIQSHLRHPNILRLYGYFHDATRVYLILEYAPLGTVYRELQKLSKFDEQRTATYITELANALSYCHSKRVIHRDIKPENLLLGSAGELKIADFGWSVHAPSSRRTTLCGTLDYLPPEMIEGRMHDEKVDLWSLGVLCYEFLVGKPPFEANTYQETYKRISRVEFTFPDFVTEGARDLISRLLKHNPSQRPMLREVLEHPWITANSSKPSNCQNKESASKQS
Chain of Serine/threonine-protein kinase haspin (Homo sapiens) (Q8TF76 whole entry): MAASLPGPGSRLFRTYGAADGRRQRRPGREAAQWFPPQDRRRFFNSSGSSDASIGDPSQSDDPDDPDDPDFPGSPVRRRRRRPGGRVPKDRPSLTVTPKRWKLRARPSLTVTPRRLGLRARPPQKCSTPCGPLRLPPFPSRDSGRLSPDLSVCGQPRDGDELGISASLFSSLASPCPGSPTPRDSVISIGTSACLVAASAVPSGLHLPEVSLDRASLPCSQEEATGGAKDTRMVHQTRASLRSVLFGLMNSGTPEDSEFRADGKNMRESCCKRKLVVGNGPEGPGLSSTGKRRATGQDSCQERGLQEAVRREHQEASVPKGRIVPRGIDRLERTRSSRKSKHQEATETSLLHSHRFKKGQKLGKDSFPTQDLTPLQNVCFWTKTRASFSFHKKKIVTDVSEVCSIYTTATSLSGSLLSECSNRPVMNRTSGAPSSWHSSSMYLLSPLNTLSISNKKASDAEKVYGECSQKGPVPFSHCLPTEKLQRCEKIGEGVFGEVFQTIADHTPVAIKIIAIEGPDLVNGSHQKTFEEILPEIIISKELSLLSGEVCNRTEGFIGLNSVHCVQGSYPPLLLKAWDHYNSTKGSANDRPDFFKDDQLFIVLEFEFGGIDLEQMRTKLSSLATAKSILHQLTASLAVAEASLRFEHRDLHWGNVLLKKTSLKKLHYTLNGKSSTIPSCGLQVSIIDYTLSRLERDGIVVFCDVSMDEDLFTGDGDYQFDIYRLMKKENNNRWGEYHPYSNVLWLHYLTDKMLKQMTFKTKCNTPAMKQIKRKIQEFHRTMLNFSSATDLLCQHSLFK
Chain of Casein kinase II subunit alpha (Homo sapiens) (P68400 whole entry, looked up): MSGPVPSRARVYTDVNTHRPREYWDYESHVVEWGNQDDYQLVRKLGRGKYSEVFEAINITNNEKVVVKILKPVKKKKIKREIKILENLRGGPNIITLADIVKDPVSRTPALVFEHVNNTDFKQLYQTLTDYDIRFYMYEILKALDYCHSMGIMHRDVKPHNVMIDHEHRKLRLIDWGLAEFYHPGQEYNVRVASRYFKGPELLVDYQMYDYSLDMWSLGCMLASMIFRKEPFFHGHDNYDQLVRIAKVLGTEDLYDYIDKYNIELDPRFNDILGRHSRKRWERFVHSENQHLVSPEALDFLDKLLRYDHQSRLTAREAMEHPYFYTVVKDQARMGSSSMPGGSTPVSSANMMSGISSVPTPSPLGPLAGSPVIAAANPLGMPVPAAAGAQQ
Chain of Dual specificity protein kinase CLK2 (P49760 whole entry): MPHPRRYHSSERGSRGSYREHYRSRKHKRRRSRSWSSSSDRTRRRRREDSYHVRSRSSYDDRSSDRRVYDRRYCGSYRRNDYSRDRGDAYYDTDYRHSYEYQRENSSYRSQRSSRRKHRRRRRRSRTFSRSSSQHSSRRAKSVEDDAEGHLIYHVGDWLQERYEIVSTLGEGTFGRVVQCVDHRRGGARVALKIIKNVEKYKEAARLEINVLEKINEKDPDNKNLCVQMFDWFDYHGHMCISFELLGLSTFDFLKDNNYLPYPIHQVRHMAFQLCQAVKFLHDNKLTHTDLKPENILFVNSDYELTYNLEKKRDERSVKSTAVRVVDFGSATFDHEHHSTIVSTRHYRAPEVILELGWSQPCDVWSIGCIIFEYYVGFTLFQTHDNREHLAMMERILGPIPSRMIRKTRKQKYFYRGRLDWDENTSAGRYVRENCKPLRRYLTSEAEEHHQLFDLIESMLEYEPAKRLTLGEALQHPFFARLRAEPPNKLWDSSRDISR

`O=C1NC(NC23CC4CC(CC(C4)C2)C3)=N/C1=C\c1ccc2scnc2c1` showed a ΔTm [1] of -0.2 °C, an IC50 [2] of 8.96 µM and an IC50 [3] of over 10 µM. It also gave an IC50 [4] of over 10 µM, a ΔTm [5] of 1 °C and a ΔTm [6] of 0 °C. It also gave a ΔTm [7] of 0.1 °C, a ΔTm [8] of 1.4 °C and a ΔTm [9] of -0.4 °C. The ΔTm [10] was -2.5 °C, the ΔTm [11] was 0.9 °C and the ΔTm [12] was -0.1 °C. The IC50 [13] was over 10 µM, the ΔTm [14] was 0.3 °C and the ΔTm [15] was -0.4 °C. It also gave an IC50 [16] of 3.5 µM, a ΔTm [17] of -0.5 °C and a ΔTm [18] of -0.1 °C. For the same compound, the ΔTm [19] was 2 °C, the ΔTm [20] was 3.2 °C and the IC50 [21] was over 10 µM. It also gave an IC50 [22] of 8.34 µM and a ΔTm [23] of 0 °C.

Reference: ChEMBL document CHEMBL5360622, “Leucettinibs, a Class of DYRK/CLK Kinase Inhibitors Inspired by the Marine Sponge Natural Product Leucettamine B” (J Med Chem, 2023)
